Measurements taken from patent US20080213223A1, “Systemic viral/ligand gene delivery system and gene therapy” (SynerGene Therapeutics, Inc., priority 1998, published 2008).

Tests used:
[1] = test system: B16 mouse melanoma lung metastases; test: B16 mouse melanoma lung metastases model with cisplatin; format: in vivo, C57/BL/6 mice; conditions: agent alone
Source text: FIGS. 5A-H. Chemosensitization of B16 mouse lung metastases to cisplatin (CDDP) by systemically delivered, tumor-targeted adenoviral-p53. The metastases were induced in normal, syngeneic C57/Bl/6 mice by the intravenous injection of 1×10^5 cells. Four days later treatment was begun. Tf-Adp53 and control Tf-AdLacZ were produced at the ratio of 1.5×10^5 Tf molecules/virion. 1×10^10 viral particles/mouse/injection (equivalent to 3×10^8 pfu) of either Adp53, Tf-Adp53 or Tf-AdLacZ were i.v. administered 3 times/week to a total of 12-13 doses. CDDP was intraperitoneally injected at 3-5 mg/kg every 2-4 days for a total of 8-13 doses. The lungs were excised from the animals after one round of treatment. Lungs from animal treated with: No treatment (FIGS. 5A and 5E); CDDP alone (FIG. 5B); untargetted Ad-p53 plus CDDP (FIG. 5C); Tf-LacZ plus CDDP (FIG. 5F); Tf-Adp53 alone (FIG. 5G); Tf-Adp53 plus CDDP (FIGS. 5D and 5H).
The ability of the ligand-targeted, viral p53 delivery system to sensitize tumor cells to chemotherapy in an immune competent animal model was examined. The model chosen for these studies was the B16 mouse melanoma lung metastases model. In multiple experiments, B16 cells were injected, via the tail vein into immune-competent C57/BL/6 mice. In this model, tumor colonies in the lung are easily visible within two-three weeks, due to the expression of melanin by the tumor cells. […]

[2] = test system: MDA-MB-435 xenograft tumors; test: MDA-MB-435 xenograft tumor growth with docetaxel (Taxotere); format: in vivo, athymic nude (NCr nu-nu) mice; conditions: agent alone
Source text: Additionally, since chemotherapy is often the treatment of choice for breast cancer, this experiment tested the ability of the delivery system of this invention to sensitize established human breast cancer xenograft tumors to the commonly used chemotherapeutic agent docetaxel (Taxotere). Xenografts were induced in 4-6 week old female athymic nude (NCr nu-nu) mice by the subcutaneous injection of 2.5×10^6 MDA-MB-435 cells in the mammary fat pad of each animal. Tumors were allowed to develop to a size of 40-50 mm^3. The targeted adenovirus, designated Tf Adp53, was prepared by mixing transferrin with adenovirus carrying DNA encoding wt p53 as described in Example 1. The animals were divided into five groups: (i) Untreated (−) Taxotere; (ii) Taxotere alone, (iii) Untargeted Adp53 (+) Taxotere; (iv) Targeted Adp53 (−) Taxotere; (v) Targeted Adp53 (+) Taxotere. The mice were i.v. injected, via the tail vein, every three to four days with 5×10^10 pt/mouse/injection of either targeted (an admixture of Tf ligand and virus was injected) or untargeted (no ligand) Adp53. A total of 12 injections were administered. The day after the initial viral injection, drug treatment was started. The animals were given Taxotere i.v. at a dose of 7.5 mg/kg every three or four days to a total of 11 injections. The tumor sizes were measured weekly in a blinded manner on a total of 6-8 tumors/group. […]

Structure (SMILES) | effect on lung tumor colonies compared to untreated animals [1] | effect on tumor growth [2]
[NH2][Pt]([NH2])([Cl])[Cl] [CDDP, cisplatin] | some effect | –
CC(=O)O[C@@]12CO[C@@H]1C[C@H](O)[C@@]1(C)C(=O)[C@H](O)C3=C(C)[C@@H](OC(=O)[C@H](O)[C@@H](NC(=O)OC(C)(C)C)c4ccccc4)C[C@@](O)([C@@H](OC(=O)c4ccccc4)[C@H]21)C3(C)C [Taxotere, docetaxel] | – | some growth inhibition
